According to publication PMC12477777, “Human exposure to green spaces and monoterpenes: discovery and use of α-pinene metabolites as biomarkers” (Environment international, 2025):

Legend:
[1] = Relative quantification of urinary aPM (UPLC-QTOF-MS, creatinine-normalized) after controlled α-pinene inhalation; format: in vivo, human; details: for Frequency of occurrence (percentage of samples with analyte detected) / Maximum response (highest peak response across all urine samples) / Observed Tmax: human urine after α-pinene inhalation; for Proportion (observed) after α-pinene inhalation: share of total response of 22 aPM, averaged over post-exposure samples
Procedure: (§1) Briefly, for controlled inhalation experiments, eight healthy volunteers were exposed to α-pinene in a custom-built exposure chamber via inhalation from a 15 ml conical tube, containing approximately 100 μl α-pinene, for a duration of 10 min. Urine samples were collected before exposure (0 h) and 0.5, 1, 2, 3, and 4 h after exposure. […] Urine samples were collected both before (0 h) or 4 h after exposure. After collection, the urine samples were centrifuged and stored at −80 °C before analysis. […] Demographic information, including sex, age and race, can be found in Table S1.
(§2) Briefly, after 1:10 dilution, urine samples were separated using an Acquity I-Class UPLC system with an Acquity Premier CSH C18 UPLC column (Waters, MA) with a gradient comprising 0.1 % formic acid in water as the solvent A and 0.1 % formic acid in acetonitrile as the solvent B. Mass Spectrometry Elevated Energy (MS^E) data were collected using a Waters Synapt XS MS (Waters, MA) with an ESI ion source operated in the negative mode. Subsequent analyses of raw files were performed using UNIFI 1.9 and Progenesis QI 3.0 (both from Waters, MA). To validate LC-MS performance, one quality control (QC) sample, prepared by pooling equal amount of each urine sample, was injected after every ten urine sample injections.
(§3) Relative quantification of aPM was performed based on the peak responses normalized to urinary creatinine levels. Urinary creatinine levels were measured using an Ace Axcel Clinical Chemistry System with ACE Creatinine Reagent from Alfa Wassermann (West Caldwell, NJ). Statistical analyses, including ANOVA and Student’s t-tests, were conducted using SAS 9.4 (SAS Institute, NC) to explore differences in aPM across various time points. […] A threshold for statistical significance was defined as p < 0.05.

[2] = Kinetic modeling of urinary aPM with a pseudo one-compartment nonlinear mixed-effects model after α-pinene inhalation; format: in vivo, human; details: for F (%), fraction of metabolite generated from absorbed α-pinene: human urine after 10 min α-pinene inhalation, F normalized to the sum of 22 detected metabolites; for Elimination t1/2 / Ka, first-order generation constant / Ke, first-order elimination rate constant: human urine after α-pinene inhalation, pseudo one-compartment model
Excerpt: In this equation, i represents the participant index, j the urine sample index, C the creatinine-normalized peak response, and t the sample collection time ( h).Ka denotes the first-order generation constant ( h^−1 ), and Ke denotes the first-order elimination rate constant h^−1 . F indicates the fraction of specific aPM relative to absorbed α-pinene. The variables D and V refer to the absorbed α-pinene amount and the distribution volume, respectively. Because input data were derived from relative quantification, absolute values of D , V , and F were not available. For simplicity, D and V were fixed at 100 and 1, respectively, and F was normalized relative to the sum of all detected aPM. The error term ε accounts for residual variation.

[3] = aPM in mouse urine after i.p. injection of (+)-α-pinene or (−)-α-pinene; format: in vivo, mice (C57BL/6); details: for (1R)-(+)-α-Pinene (Average), proportion of aPM in mouse urine / (1S)-(−)-α-Pinene (Average), proportion of aPM in mouse urine: mouse urine collected overnight, 50 mg/kg; for (1R)-(+)-α-Pinene (Average), proportion of aPM in mouse urine: 50 mg/kg i.p. (+)-α-pinene; for (1S)-(−)-α-Pinene (Average), proportion of aPM in mouse urine: 50 mg/kg i.p. (−)-α-pinene; for R/(R+S): mouse urine, enantiomer specificity; for Detection in mouse urine: after exposure to either α-pinene enantiomer
Procedure: Mouse urine was collected after exposures to either (+) or (−) α-pinene to distinguish between metabolites of different enantiomers of α-pinene. Adult male mice (C57BL/6) were intraperitoneally administered with 50 mg/kg body weight of (+)-α-pinene or (−)-α-pinene dissolved in 100 μl sterile saline with 1 % Tween 80.

[4] = Urinary aPM after 4 h greenness (forest) exposure; format: in vivo, human; parameters: Maximum response: unit not given here; details: for Frequency of occurrence / Maximum response: human urine, greenness exposure; for Proportion (observed) after greenness exposure: share of total aPM response
Procedure: as §1, §2, §3

CC1(C)C2CC=C(C(=O)OC3OC(C(=O)O)C(O)C(O)C3O)C1C2 (single isomer, unassigned) [aPM3a, Myrtenic acid-GlcA]
Frequency of occurrence (percentage of samples with analyte detected) [1]: 93.8% | Maximum response (highest peak response across all urine samples) [1]: 50629 | Observed Tmax [1]: 1 h | Proportion (observed) after α-pinene inhalation [1]: 3.2% | F (%), fraction of metabolite generated from absorbed α-pinene [2]: 2.92 ± 0.94% | Elimination t1/2 [2]: 0.93 ± 0.27 h | Ka, first-order generation constant [2]: 1.80 ± 0.67 h⁻¹ | Ke, first-order elimination rate constant [2]: 0.75 ± 0.22 h⁻¹ | (1R)-(+)-α-Pinene (Average), proportion of aPM in mouse urine [3]: 0.0% | (1S)-(−)-α-Pinene (Average), proportion of aPM in mouse urine [3]: 10.0% | R/(R+S) [3]: 0% | Frequency of occurrence [4]: 0.0%

CC1(C)C2CC=C(C(=O)OC3OC(C(=O)O)C(O)C(O)C3O)C1C2 (single isomer, unassigned) [aPM3b, Myrtenic acid-GlcA]
Frequency of occurrence (percentage of samples with analyte detected) [1]: 100.0% | Maximum response (highest peak response across all urine samples) [1]: 352366 | Observed Tmax [1]: 1 h | Elimination t1/2 [2]: 0.61 ± 0.13 h | Ka, first-order generation constant [2]: 1.98 ± 0.60 h⁻¹ | Ke, first-order elimination rate constant [2]: 1.13 ± 0.24 h⁻¹ | Detection in mouse urine [3]: present in murine samples | (1R)-(+)-α-Pinene (Average), proportion of aPM in mouse urine [3]: 1.6% | (1S)-(−)-α-Pinene (Average), proportion of aPM in mouse urine [3]: 2.7% | R/(R+S) [3]: 37.5% | Frequency of occurrence [4]: 87.5% | Maximum response [4]: 2516 | Proportion (observed) after greenness exposure [4]: 17.7%

CC1(C)C2CCC(C(=O)OC3OC(C(=O)O)C(O)C(O)C3O)C1C2 (single isomer, unassigned) [aPM4a, Dihydromyrtenic acid-GlcA]
Frequency of occurrence (percentage of samples with analyte detected) [1]: 89.6% | Maximum response (highest peak response across all urine samples) [1]: 72991 | Observed Tmax [1]: 1 h | Proportion (observed) after α-pinene inhalation [1]: 2.4% | F (%), fraction of metabolite generated from absorbed α-pinene [2]: 3.19 ± 1.11% | Elimination t1/2 [2]: 0.71 ± 0.22 h | Ka, first-order generation constant [2]: 2.12 ± 0.87 h⁻¹ | Ke, first-order elimination rate constant [2]: 0.98 ± 0.30 h⁻¹ | (1R)-(+)-α-Pinene (Average), proportion of aPM in mouse urine [3]: 0.0% | (1S)-(−)-α-Pinene (Average), proportion of aPM in mouse urine [3]: 5.0% | R/(R+S) [3]: 0.0% | Frequency of occurrence [4]: 6.3% | Maximum response [4]: 53 | Proportion (observed) after greenness exposure [4]: 0.0%

CC1(C)C2CCC(C(=O)OC3OC(C(=O)O)C(O)C(O)C3O)C1C2 (single isomer, unassigned) [aPM4b, Dihydromyrtenic acid-GlcA]
Frequency of occurrence (percentage of samples with analyte detected) [1]: 81.3% | Maximum response (highest peak response across all urine samples) [1]: 14109 | Observed Tmax [1]: 1 h | Proportion (observed) after α-pinene inhalation [1]: 1.2% | F (%), fraction of metabolite generated from absorbed α-pinene [2]: 1.47 ± 0.63% | Elimination t1/2 [2]: 0.79 ± 0.26 h | Ka, first-order generation constant [2]: 1.34 ± 0.47 h⁻¹ | Ke, first-order elimination rate constant [2]: 0.87 ± 0.28 h⁻¹ | (1R)-(+)-α-Pinene (Average), proportion of aPM in mouse urine [3]: 0.0% | (1S)-(−)-α-Pinene (Average), proportion of aPM in mouse urine [3]: 4.2% | R/(R+S) [3]: 0.0% | Frequency of occurrence [4]: 0.0%

CC1(C)C2CCC(C(=O)OC3OC(C(=O)O)C(O)C(O)C3O)C1C2 (single isomer, unassigned) [aPM4c, Dihydromyrtenic acid-GlcA]
Frequency of occurrence (percentage of samples with analyte detected) [1]: 89.6% | Maximum response (highest peak response across all urine samples) [1]: 5156 | Observed Tmax [1]: 1 h | Proportion (observed) after α-pinene inhalation [1]: 0.5% | F (%), fraction of metabolite generated from absorbed α-pinene [2]: 0.26 ± 0.08% | Elimination t1/2 [2]: 1.51 ± 0.54 h | Ka, first-order generation constant [2]: 1.65 ± 0.67 h⁻¹ | Ke, first-order elimination rate constant [2]: 0.46 ± 0.16 h⁻¹ | (1R)-(+)-α-Pinene (Average), proportion of aPM in mouse urine [3]: 0.0% | (1S)-(−)-α-Pinene (Average), proportion of aPM in mouse urine [3]: 0.1% | R/(R+S) [3]: 0.0% | Frequency of occurrence [4]: 0.0%

CC1(C)C2CCC(C(=O)OC3OC(C(=O)O)C(O)C(O)C3O)C1C2 (single isomer, unassigned) [aPM4d, Dihydromyrtenic acid-GlcA]
Frequency of occurrence (percentage of samples with analyte detected) [1]: 97.9% | Maximum response (highest peak response across all urine samples) [1]: 183468 | Observed Tmax [1]: 1 h | F (%), fraction of metabolite generated from absorbed α-pinene [2]: 13.03 ± 5.57% | Elimination t1/2 [2]: 1.01 ± 0.40 h | Ka, first-order generation constant [2]: 0.73 ± 0.29 h⁻¹ | Ke, first-order elimination rate constant [2]: 0.68 ± 0.27 h⁻¹ | Detection in mouse urine [3]: present in murine samples | (1R)-(+)-α-Pinene (Average), proportion of aPM in mouse urine [3]: 0.0% | (1S)-(−)-α-Pinene (Average), proportion of aPM in mouse urine [3]: 0.2% | R/(R+S) [3]: 0.0% | Frequency of occurrence [4]: 68.8% | Maximum response [4]: 7375 | Proportion (observed) after greenness exposure [4]: 9.4%

CC1(C)C2CCC(C(=O)OC3OC(C(=O)O)C(O)C(O)C3O)C1C2 (single isomer, unassigned) [aPM4e, Dihydromyrtenic acid-GlcA]
Frequency of occurrence (percentage of samples with analyte detected) [1]: 95.8% | Maximum response (highest peak response across all urine samples) [1]: 241782 | Observed Tmax [1]: 1 h | F (%), fraction of metabolite generated from absorbed α-pinene [2]: 18.14 ± 6.52% | Elimination t1/2 [2]: 0.99 ± 0.33 h | Ka, first-order generation constant [2]: 1.26 ± 0.50 h⁻¹ | Ke, first-order elimination rate constant [2]: 0.70 ± 0.24 h⁻¹ | Detection in mouse urine [3]: present in murine samples | (1R)-(+)-α-Pinene (Average), proportion of aPM in mouse urine [3]: 0.1% | (1S)-(−)-α-Pinene (Average), proportion of aPM in mouse urine [3]: 0.2% | R/(R+S) [3]: 24.1% | Frequency of occurrence [4]: 93.8% | Maximum response [4]: 27114 | Proportion (observed) after greenness exposure [4]: 67.8%

CC1(C)C2CC1C(OC1OC(C(=O)O)C(O)C(O)C1O)C=C2C(=O)O (single isomer, unassigned) [aPM5a, Myrtenic acid-4-O-GlcA]
Frequency of occurrence (percentage of samples with analyte detected) [1]: 79.2% | Maximum response (highest peak response across all urine samples) [1]: 4787 | Observed Tmax [1]: 1 h | Proportion (observed) after α-pinene inhalation [1]: 0.3% | F (%), fraction of metabolite generated from absorbed α-pinene [2]: 0.25 ± 0.09% | Elimination t1/2 [2]: 1.00 ± 0.38 h | Ka, first-order generation constant [2]: 1.64 ± 0.77 h⁻¹ | Ke, first-order elimination rate constant [2]: 0.70 ± 0.27 h⁻¹ | (1R)-(+)-α-Pinene (Average), proportion of aPM in mouse urine [3]: 0.0% | (1S)-(−)-α-Pinene (Average), proportion of aPM in mouse urine [3]: 0.1% | R/(R+S) [3]: 0% | Frequency of occurrence [4]: 0.0%

CC1(C)C2CC1C(OC1OC(C(=O)O)C(O)C(O)C1O)C=C2C(=O)O (single isomer, unassigned) [aPM5b, Myrtenic acid-4-O-GlcA]
Frequency of occurrence (percentage of samples with analyte detected) [1]: 91.7% | Maximum response (highest peak response across all urine samples) [1]: 22121 | Observed Tmax [1]: 1 h | Proportion (observed) after α-pinene inhalation [1]: 1.6% | F (%), fraction of metabolite generated from absorbed α-pinene [2]: 1.46 ± 0.57% | Elimination t1/2 [2]: 0.87 ± 0.34 h | Ka, first-order generation constant [2]: 1.74 ± 0.84 h⁻¹ | Ke, first-order elimination rate constant [2]: 0.80 ± 0.31 h⁻¹ | (1R)-(+)-α-Pinene (Average), proportion of aPM in mouse urine [3]: 0.0% | (1S)-(−)-α-Pinene (Average), proportion of aPM in mouse urine [3]: 0.0% | Frequency of occurrence [4]: 6.3% | Maximum response [4]: 89 | Proportion (observed) after greenness exposure [4]: 0.0%

CC1(C)C2CC1C(OC1OC(C(=O)O)C(O)C(O)C1O)C=C2C(=O)O (single isomer, unassigned) [aPM5c, Myrtenic acid-4-O-GlcA]
Frequency of occurrence (percentage of samples with analyte detected) [1]: 79.2% | Maximum response (highest peak response across all urine samples) [1]: 25963 | Observed Tmax [1]: 1 h | Proportion (observed) after α-pinene inhalation [1]: 1.2% | F (%), fraction of metabolite generated from absorbed α-pinene [2]: 1.28 ± 0.53% | Elimination t1/2 [2]: 0.88 ± 0.36 h | Ka, first-order generation constant [2]: 1.73 ± 0.89 h⁻¹ | Ke, first-order elimination rate constant [2]: 0.79 ± 0.32 h⁻¹ | (1R)-(+)-α-Pinene (Average), proportion of aPM in mouse urine [3]: 0.0% | (1S)-(−)-α-Pinene (Average), proportion of aPM in mouse urine [3]: 0.0% | Frequency of occurrence [4]: 37.5% | Maximum response [4]: 136 | Proportion (observed) after greenness exposure [4]: 0.7%

α-Pinene-O-GlcA [aPM2a]
Observed Tmax [1]: 0.5 h | F (%), fraction of metabolite generated from absorbed α-pinene [2]: 0.51 ± 0.12% | Elimination t1/2 [2]: 0.56 ± 0.08 h | Ke, first-order elimination rate constant [2]: 1.23 ± 0.17 h⁻¹ | Proportion (observed) after greenness exposure [4]: 0.9%
